US8853418B2, “Cyclopentylpyrazoles as N-type calcium channel blockers” (Janssen Pharmaceutica NV, priority 2012, dated 2014)
Where two headings read alike, the source gives them in different places.

Target: N-type calcium channel (α1B (Cav2.2), β3 and α2δ subunits) (Homo sapiens, UniProt Q00975)
Assay: Functional Assay: Antagonism of N-Type Calcium Channel (FDSS calcium mobilization, KCl depolarization)
Assay type: cell-based
Protocol: A stable cell line (HEK parent) co-expressing the α1B (Cav2.2), β3 and α2δ subunits of the N-type calcium channel subunits was used. These cells were routinely grown as monolayers in low glucose-containing Dulbecco's Modified Eagle Medium supplemented with 10% FBS, 2 mM L-glutamine, 100 I.U./mL penicillin, 100 μg/mL streptomycin, 400 μg/mL G418 and 200 μg/mL Zeocin (split ratio=1:5). Cells were maintained in 5% CO2 at 37° C. Compounds of Formula (I) were prepared as 10 mM stocks in DMSO from neat compound, if available. Otherwise, the 5 or 10 mM DMSO stock solutions provided in-house were used.
Calcium mobilization responses to KCl depolarization were evaluated by measuring the intensity of calcium-mediated fluorescent signal in the presence of BD Calcium Assay Dye (BD Biosciences, Franklin Lakes, N.J., U.S.A.), utilizing a Functional Drug Screening System (FDSS) by Hamamatsu Corporation (Bridgewater, N.J. U.S.A.).
Twenty-four hr prior to assay, cells were seeded in clear-base poly-D-lysine-coated 384-well plates (BD Biosciences) at a density of 5,000 cells per well in culture medium and grown overnight in 5% CO2 at 37° C. On the day of assay, growth media were removed, and cells were loaded with BD calcium assay dye (BD Biosciences) for 35 min at 37° C. under 5% CO2 and then for 25 min at room temp. Utilizing the FDSS, cells were exposed to representative compounds of Formula (I) at varying concentrations, and intracellular calcium was measured for 5 min prior to the addition of 50 mM KCl for an additional 3 min of measurement.
Calculations and Formulas
IC50 values for representative compounds of Formula (I) were determined from six-point concentration-response experiments and represent the concentration of said compound required to inhibit 50% of the maximal response. Maximal fluorescence intensity (FI) achieved upon addition of 50 mM KCl was exported from the FDSS software and further analyzed using GraphPad Prism 3.02 (Graph Pad Software Inc., San Diego, Calif., U.S.A.). Data were normalized to the maximum average counts from quadruplicate wells for each condition in the presence of 50 mM KCl and to the minimum average counts in the presence of buffer. Theoretical curves were generated using nonlinear regression curve-fitting analysis of either sigmoidal concentration-response or sigmoidal concentration-response (variable slope), and the IC50 values with the best-fit curve determined by GraphPad Prism were reported.

[1] = HEK cell line, 50 mM KCl depolarization, six-point concentration-response, read-out: FDSS IC50

Sequence of N-type calcium channel (α1B (Cav2.2), β3 and α2δ subunits) (Q00975 whole entry): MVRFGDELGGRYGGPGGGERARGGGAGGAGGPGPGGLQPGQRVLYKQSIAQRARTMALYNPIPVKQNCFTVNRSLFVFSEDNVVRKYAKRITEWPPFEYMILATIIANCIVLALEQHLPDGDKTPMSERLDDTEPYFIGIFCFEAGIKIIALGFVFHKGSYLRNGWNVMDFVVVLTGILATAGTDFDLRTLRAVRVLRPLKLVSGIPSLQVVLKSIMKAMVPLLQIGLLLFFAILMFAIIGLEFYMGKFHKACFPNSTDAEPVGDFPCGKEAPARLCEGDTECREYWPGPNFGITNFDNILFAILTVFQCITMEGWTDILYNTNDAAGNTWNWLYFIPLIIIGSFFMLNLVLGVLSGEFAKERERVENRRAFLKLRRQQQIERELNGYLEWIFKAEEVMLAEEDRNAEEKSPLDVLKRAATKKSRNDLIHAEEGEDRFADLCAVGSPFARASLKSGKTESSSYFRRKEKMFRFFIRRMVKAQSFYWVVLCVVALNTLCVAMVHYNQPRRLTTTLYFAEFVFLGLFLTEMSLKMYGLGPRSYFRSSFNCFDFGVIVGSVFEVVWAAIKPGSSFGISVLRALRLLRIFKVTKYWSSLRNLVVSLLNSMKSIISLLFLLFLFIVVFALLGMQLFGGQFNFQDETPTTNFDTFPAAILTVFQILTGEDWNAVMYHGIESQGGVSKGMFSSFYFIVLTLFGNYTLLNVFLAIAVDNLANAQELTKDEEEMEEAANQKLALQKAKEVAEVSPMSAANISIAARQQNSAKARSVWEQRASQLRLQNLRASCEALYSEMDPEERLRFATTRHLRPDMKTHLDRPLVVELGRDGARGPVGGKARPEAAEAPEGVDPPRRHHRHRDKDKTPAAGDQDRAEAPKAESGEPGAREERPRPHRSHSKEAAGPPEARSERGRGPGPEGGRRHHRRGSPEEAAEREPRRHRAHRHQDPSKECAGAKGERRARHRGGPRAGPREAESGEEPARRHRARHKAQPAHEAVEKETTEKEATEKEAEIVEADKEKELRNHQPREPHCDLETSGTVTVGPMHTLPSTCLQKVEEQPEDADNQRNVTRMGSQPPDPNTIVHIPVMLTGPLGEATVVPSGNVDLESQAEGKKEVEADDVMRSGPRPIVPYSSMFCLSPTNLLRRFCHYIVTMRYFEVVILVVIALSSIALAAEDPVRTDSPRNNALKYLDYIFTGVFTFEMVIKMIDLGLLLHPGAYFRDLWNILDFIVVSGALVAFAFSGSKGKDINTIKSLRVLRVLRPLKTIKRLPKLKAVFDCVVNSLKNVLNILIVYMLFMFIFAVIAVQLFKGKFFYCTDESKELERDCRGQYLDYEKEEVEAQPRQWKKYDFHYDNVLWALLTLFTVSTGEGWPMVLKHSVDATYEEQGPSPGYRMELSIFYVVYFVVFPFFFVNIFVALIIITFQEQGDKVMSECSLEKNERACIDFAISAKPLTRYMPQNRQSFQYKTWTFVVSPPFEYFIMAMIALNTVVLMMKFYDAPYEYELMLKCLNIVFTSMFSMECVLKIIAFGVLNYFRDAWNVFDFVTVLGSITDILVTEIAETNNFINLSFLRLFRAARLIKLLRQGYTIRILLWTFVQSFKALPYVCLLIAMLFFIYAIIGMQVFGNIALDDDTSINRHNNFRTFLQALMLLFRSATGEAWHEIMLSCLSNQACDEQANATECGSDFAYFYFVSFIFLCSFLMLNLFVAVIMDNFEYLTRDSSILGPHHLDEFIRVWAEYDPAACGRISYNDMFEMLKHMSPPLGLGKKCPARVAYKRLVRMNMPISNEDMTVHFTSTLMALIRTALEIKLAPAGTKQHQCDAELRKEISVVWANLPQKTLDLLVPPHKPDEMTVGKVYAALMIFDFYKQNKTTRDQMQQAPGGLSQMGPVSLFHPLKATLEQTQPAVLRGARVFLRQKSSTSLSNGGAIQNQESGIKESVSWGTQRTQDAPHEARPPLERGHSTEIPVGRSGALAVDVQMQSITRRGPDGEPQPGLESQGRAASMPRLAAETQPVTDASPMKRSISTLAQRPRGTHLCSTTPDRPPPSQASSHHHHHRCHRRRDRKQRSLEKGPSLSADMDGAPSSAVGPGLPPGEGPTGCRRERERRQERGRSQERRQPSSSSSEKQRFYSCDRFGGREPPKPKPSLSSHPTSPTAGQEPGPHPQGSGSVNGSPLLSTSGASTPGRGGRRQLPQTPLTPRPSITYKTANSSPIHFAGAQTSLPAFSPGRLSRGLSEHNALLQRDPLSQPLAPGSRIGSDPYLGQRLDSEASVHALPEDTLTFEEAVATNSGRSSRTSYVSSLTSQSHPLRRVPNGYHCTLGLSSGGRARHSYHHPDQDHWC
Sequence of N-type calcium channel (α1B (Cav2.2), β3 and α2δ subunits) (P54284 whole entry partner): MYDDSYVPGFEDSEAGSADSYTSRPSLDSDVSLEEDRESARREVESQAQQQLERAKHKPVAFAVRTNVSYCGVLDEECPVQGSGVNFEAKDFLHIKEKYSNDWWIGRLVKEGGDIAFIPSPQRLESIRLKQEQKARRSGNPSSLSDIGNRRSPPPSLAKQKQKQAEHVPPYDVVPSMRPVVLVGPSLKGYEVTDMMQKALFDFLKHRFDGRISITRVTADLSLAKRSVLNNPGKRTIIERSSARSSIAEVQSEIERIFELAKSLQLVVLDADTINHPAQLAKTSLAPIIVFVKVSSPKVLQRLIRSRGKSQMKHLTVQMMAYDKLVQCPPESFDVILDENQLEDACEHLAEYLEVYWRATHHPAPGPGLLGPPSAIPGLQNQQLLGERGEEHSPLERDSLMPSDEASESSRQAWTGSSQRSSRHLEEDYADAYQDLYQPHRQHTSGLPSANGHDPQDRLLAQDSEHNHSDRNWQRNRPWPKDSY
Sequence of N-type calcium channel (α1B (Cav2.2), β3 and α2δ subunits) (P54289 25-946 partner limits assumed): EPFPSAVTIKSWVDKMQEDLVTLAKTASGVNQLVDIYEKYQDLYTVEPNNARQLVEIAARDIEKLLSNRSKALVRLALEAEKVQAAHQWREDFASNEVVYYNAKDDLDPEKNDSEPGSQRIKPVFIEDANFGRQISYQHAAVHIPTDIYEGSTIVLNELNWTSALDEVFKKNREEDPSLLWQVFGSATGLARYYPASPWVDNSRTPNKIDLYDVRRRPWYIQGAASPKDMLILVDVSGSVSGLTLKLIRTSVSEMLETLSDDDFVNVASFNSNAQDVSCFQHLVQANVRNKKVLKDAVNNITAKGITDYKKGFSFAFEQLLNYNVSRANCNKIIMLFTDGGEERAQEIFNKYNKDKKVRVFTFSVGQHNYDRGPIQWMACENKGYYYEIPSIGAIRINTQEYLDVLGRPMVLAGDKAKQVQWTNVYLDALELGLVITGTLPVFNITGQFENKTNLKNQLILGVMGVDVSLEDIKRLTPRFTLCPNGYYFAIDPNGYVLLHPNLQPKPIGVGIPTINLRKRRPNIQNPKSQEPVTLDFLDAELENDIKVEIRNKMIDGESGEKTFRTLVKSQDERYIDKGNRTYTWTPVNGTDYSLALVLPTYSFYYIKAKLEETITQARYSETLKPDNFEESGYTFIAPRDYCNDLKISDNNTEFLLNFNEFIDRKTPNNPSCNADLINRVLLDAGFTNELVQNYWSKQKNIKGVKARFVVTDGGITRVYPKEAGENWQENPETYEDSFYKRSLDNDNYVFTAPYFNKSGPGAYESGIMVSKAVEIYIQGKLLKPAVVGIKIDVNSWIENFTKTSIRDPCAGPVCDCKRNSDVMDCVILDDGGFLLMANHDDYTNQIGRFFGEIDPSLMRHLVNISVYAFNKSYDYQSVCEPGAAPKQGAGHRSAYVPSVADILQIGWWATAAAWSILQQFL
Sequence of N-type calcium channel (α1B (Cav2.2), β3 and α2δ subunits) (P54289 947-1103 partner limits assumed): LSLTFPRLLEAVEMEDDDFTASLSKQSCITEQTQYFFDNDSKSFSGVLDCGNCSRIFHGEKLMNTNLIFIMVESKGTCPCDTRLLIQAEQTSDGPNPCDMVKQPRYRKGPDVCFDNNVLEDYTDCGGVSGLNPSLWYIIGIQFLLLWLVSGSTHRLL

| inhibition at 0.33 µM (0.33 μM) | IC50 [1] | SMILES | inhibition at 0.33 µM | IC50 (FDSS IC50) |
| --- | --- | --- | --- | --- |
| 59% | 280 nM | COc1ccccc1-n1nc2c(c1-c1ccc(Cl)cc1)CC(C1CNc3ccccc3C1)C2 (stereo not drawn) [Compound 65, 3-[3-(4-chlorophenyl)-2-(2-methoxyphenyl)-2,4,5,6-tetrahydrocyclopenta[c]pyrazol-5-yl]-1,2,3,4-tetrahydroquinoline] | – | – |
| 79% | 66 nM | CCOC(=O)c1cncc(C2Cc3nn(-c4ccccc4OC)c(-c4ccc(Cl)cc4)c3C2)c1 (stereo not drawn) [Compound 66, Ethyl 5-[3-(4-chlorophenyl)-2-(2-methoxyphenyl)-2,4,5,6-tetrahydrocyclopenta[c]pyrazol-5-yl]pyridine-3-carboxylate] | – | – |
| 81% | 86 nM | COc1ccccc1-n1nc2c(c1-c1ccc(Cl)cc1)CC(c1ccc(C)nc1)C2 (stereo not drawn) [Compound 73, 3-(4-chlorophenyl)-2-(2-methoxyphenyl)-5-(6-methylpyridin-3-yl)-2,4,5,6-tetrahydrocyclopenta[c]pyrazole] | – | – |
| 61% | 150 nM | CCOc1ccc(C2Cc3nn(-c4ccccc4OC)c(-c4ccc(Cl)cc4)c3C2)cn1 (stereo not drawn) [Compound 74, 3-(4-chlorophenyl)-5-(6-ethoxypyridin-3-yl)-2-(2-methoxyphenyl)-2,4,5,6-tetrahydrocyclopenta[c]pyrazole] | – | – |
| 53% | 230 nM | COc1ccccc1-n1nc2c(c1-c1ccc(Cl)cc1)CC(c1ccc(C(C)C)nc1Cl)C2 (stereo not drawn) [Compound 75, 5-[2-Chloro-6-(1-methylethyl)pyridin-3-yl]-3-(4-chlorophenyl)-2-(2-methoxyphenyl)-2,4,5,6-tetrahydrocyclopenta[c]pyrazole] | – | – |
| 81% | 62 nM | COc1ccccc1-n1nc2c(c1-c1ccc(Cl)cc1)CC(c1ccc(C3CC3)nc1)C2 (stereo not drawn) [Compound 77, 3-(4-chlorophenyl)-5-(6-cyclopropylpyridin-3-yl)-2-(2-methoxyphenyl)-2,4,5,6-tetrahydrocyclopenta[c]pyrazole] | – | – |
| – | – | COc1ccccc1-n1nc2c(c1-c1ccc(Cl)cc1)C[C@H](OCC1CCCCC1)C2 [Compound 82, (5S)-3-(4-chlorophenyl)-5-(cyclohexylmethoxy)-2-(2-methoxyphenyl)-2,4,5,6-tetrahydrocyclopenta[c]pyrazole] | 76% | 130 nM |
| – | – | COc1ccccc1-n1nc2c(c1-c1ccc(Cl)cc1)C[C@H](OCC1CCC1)C2 [Compound 84, (5S)-3-(4-chlorophenyl)-5-(cyclobutylmethoxy)-2-(2-methoxyphenyl)-2,4,5,6-tetrahydrocyclopenta[c]pyrazole] | 80% | – |
| 82% | 82 nM | COc1ccccc1-n1nc2c(c1-c1ccc(Cl)cc1)C[C@H](OC(=O)C1CCOCC1)C2 [Compound 86, (5S)-3-(4-chlorophenyl)-2-(2-methoxyphenyl)-2,4,5,6-tetrahydrocyclopenta[c]pyrazol-5-yl tetrahydro-2H-pyran-4-carboxylate] | – | – |
| 82% | 92 nM | COc1ccccc1-n1nc2c(c1-c1ccc(Cl)cc1)C[C@H](OCC1CCOCC1)C2 [Compound 87, (5S)-3-(4-chlorophenyl)-2-(2-methoxyphenyl)-5-(tetrahydro-2H-pyran-4-ylmethoxy)-2,4,5,6-tetrahydrocyclopenta[c]pyrazole] | – | – |
| – | – | COc1ccccc1-n1nc2c(c1-c1ccc(Cl)cc1)CC(C(C)C)C2 (stereo not drawn) [Compound 92, 3-(4-chlorophenyl)-2-(2-methoxyphenyl)-5-(1-methylethyl)-2,4,5,6-tetrahydrocyclopenta[c]pyrazole] | 43% | – |
| 81% | 60 nM | CCOc1ccc(-c2c3c(nn2-c2ccccc2OC)CC2(C3)OCC(C)(C)CO2)cn1 [Compound 94, 3-(6-ethoxypyridin-3-yl)-2-(2-methoxyphenyl)-5′,5′-dimethyl-2,6-dihydro-4H-spiro[cyclopenta[c]pyrazole-5,2′-[1,3]dioxane]] | – | – |
| 67% | 110 nM | COc1ccccc1-n1nc2c(c1-c1ccc(C)nc1)CC1(C2)OCC(C)(C)CO1 [Compound 95, 2-(2-methoxyphenyl)-5′,5′-dimethyl-3-(6-methylpyridin-3-yl)-2,6-dihydro-4H-spiro[cyclopenta[c]pyrazole-5,2′-[1,3]dioxane]] | – | – |
| 61% | 140 nM | COc1ccccc1-n1nc2c(c1-c1ccc(Cl)cc1)CC(C1CCCCC1)C2 (stereo not drawn) [Compound 104, 3-(4-chlorophenyl)-5-cyclohexyl-2-(2-methoxyphenyl)-2,4,5,6-tetrahydrocyclopenta[c]pyrazole] | – | – |
| 64% | 270 nM | COc1ccccc1-n1nc2c(c1-c1ccc(C#N)cc1)CC(CC1CCCCC1)C2 (stereo not drawn) [Compound 106, 4-[5-(cyclohexylmethyl)-2-(2-methoxyphenyl)-2,4,5,6-tetrahydrocyclopenta[c]pyrazol-3-yl]benzonitrile] | – | – |
| 77% | 48 nM | COc1ccccc1-n1nc2c(c1-c1ccc(Cl)cc1)CC(N1CC(C)OC(C)C1)C2 (stereo not drawn) [Compound 116, 3-(4-chlorophenyl)-5-(2,6-dimethylmorpholin-4-yl)-2-(2-methoxyphenyl)-2,4,5,6-tetrahydrocyclopenta[c]pyrazole] | – | – |
| 75% | 44 nM | COc1ccccc1-n1nc2c(c1-c1ccc(Cl)cc1)CC(N1CCC(C)CC1)C2 (stereo not drawn) [Compound 117, 3-(4-chlorophenyl)-2-(2-methoxyphenyl)-5-(4-methylpiperidin-1-yl)-2,4,5,6-tetrahydrocyclopenta[c]pyrazole] | – | – |
| 76% | 46 nM | CCC1(CC)CCN(C2Cc3nn(-c4ccccc4OC)c(-c4ccc(Cl)cc4)c3C2)C1 (stereo not drawn) [Compound 118, 3-(4-chlorophenyl)-5-(3,3-diethylpyrrolidin-1-yl)-2-(2-methoxyphenyl)-2,4,5,6-tetrahydrocyclopenta[c]pyrazole] | – | – |
| 76% | 84 nM | COc1ccccc1-n1nc2c(c1-c1ccc(Cl)cc1)CC(N1CCC(C)(C)C1)C2 (stereo not drawn) [Compound 119, 3-(4-chlorophenyl)-5-(3,3-dimethylpyrrolidin-1-yl)-2-(2-methoxyphenyl)-2,4,5,6-tetrahydrocyclopenta[c]pyrazole] | – | – |
| 78% | 91 nM | COc1ccccc1-n1nc2c(c1-c1ccc(Cl)s1)CC1(C2)OCC(C)(C)CO1 [Compound 120, 3-(5-chlorothiophen-2-yl)-2-(2-methoxyphenyl)-5′,5′-dimethyl-2,6-dihydro-4H-spiro[cyclopenta[c]pyrazole-5,2′-[1,3]dioxane]] | – | – |

| SMILES | inhibition at 0.33 µM (0.33 μM) | IC50 [1] | inhibition at 0.33 µM | IC50 (FDSS IC50) |
| --- | --- | --- | --- | --- |
| CCC(CC)CO[C@@H]1Cc2nn(-c3ccccc3OC)c(-c3ccc(Cl)cc3)c2C1 [Compound 72, (5S)-3-(4-chlorophenyl)-5-(2-ethylbutoxy)-2-(2-methoxyphenyl)-2,4,5,6-tetrahydrocyclopenta[c]pyrazole] | 78% | 61 nM | – | – |
| COc1ccccc1-n1nc2c(c1-c1ccc(Cl)cc1)C[C@H](OCC1CCCC1)C2 [Compound 83, (5S)-3-(4-chlorophenyl)-5-(cyclopentylmethoxy)-2-(2-methoxyphenyl)-2,4,5,6-tetrahydrocyclopenta[c]pyrazole] | – | 49 nM | 92% | – |
